# What was measured:
# OVCAR-3 cells = test: Cell growth assay, crystal violet, 11 days; format: cell-based, human; conditions: for effect on growth inhibition: Experiment V
# Experimental: The human ovarian adenocarcinoma cell line, OVCAR-3 (ATCC, Manassas, Va.) was maintained, as recommended by the supplier, in RPMI 1640 medium (Sigma Aldrich, St. Louis, Mo.) supplemented with 10% FBS, 10 μg/ml insulin, 0.25% glucose and antibiotics (100 IU/ml penicillin, 100 μg/ml streptomycin). Human ovarian adenocarcinoma cell lines UT-OC-1, UT-OC-2, UT-OC-3, UT-OC-4, UT-OC-5 (Grenman, S., Engblom, P., Rantanen, V., Klemi, P. and Isola, J., “Cytogenetic Characterization of Five New Ovarian Carcinoma Cell Lines,” Acta Obstet. Gynecol. Scand., 76:83 (1997)) and SK-OV-3 and a human keratinocyte cell line HaCaT were grown in DMEM (Sigma Aldrich) with 10% FBS and antibiotics (100 IU/ml penicillin, 100 μg/ml streptomycin), and monkey kidney COS cells were maintained in DMEM/F12 (Sigma Aldrich) with 5% FBS. All cell lines were kept at 37° C. in a humidified 95% air/5% CO2 incubator.
# When OVCAR-3 cells were on the logarithmic growth phase (70% confluent) the growth assay was started. For cell growth assay, 2,000 cell/200 μl/well were plated on 96-well culture plates. […] Ethanol was used as a vehicle, and it was also included in the control. The medium containing ethanol vehicle and/or hormones were changed to a fresh one every third day. Cell growth samples were taken 0, 1, 3, 5, 7, 9 and 11 days after the treatment.
# Relative cell numbers were quantified as described previously (Kueng W, Silber E, Eppenberger U. Quantification of cells cultured on 96-well plates. Anal. Biochem., 182:16-9 (1989)). Cells were fixed on the bottom of the wells by addition of 10 μl of 11% glutaraldehyde solution in 0.1% phosphate buffer to 100 μl of medium. The plate was shaken 500 cycles/min for 15 min, washed 3 times by submersion in de-ionised water and air-dried. Fixed cells were stained with 0.1% solution of crystal violet dissolved in de-ionised water. After 20 min incubation, excess dye was removed by carefully washing with de-ionised water. The plate was air-dried prior to a bound dye solubilisation in 100 μl of 10% acetic acid. Relative cell number was given as absorbance units by measuring the optical density (590 nm) from each well using Victor 1420 multilabel counter (Wallac, Turku, Finland). Six determinations were used to calculate the mean optical density ±SD in each concentration at each time point. The absorbance value of day 0 (an overnight culture of 2,000 cells/well) was set as 0 by subtracting it from each value obtained from adjacent time-point measurements (days 1-11), and based on these values growth curves were created. Experiments were repeated 3-5 times. Day 11 was used to compare the effect of hormone treatments and 24OHase inhibitor. Statistical analyses were done using Student's t-test.
# The cell growth response was determined as described in Experiment I. Briefly, cells were treated with indicated hormone concentrations or combinations of hormone and 24OHase inhibitor (VID400) for 11 days. The growth medium and hormones were changed to a fresh one every third day. After the treatment period, cells were fixed, stained with crystal violet, and the optical density (590 nm) was determined. The cell growth is presented as a percentage of ethanol-treated cells. The values represent the mean of 3 separate experiments ±SD. (*p<0.05, **p<0.001, ***p<0.0001, Student's t-test).
# Cell growth samples were obtained after 11 days treatment.
# 24OHase in OVCAR-3 cells = biological target: T1, 24OHase in OVCAR-3 cells (Homo sapiens, UniProt Q07973); test: Metabolic analysis of 25(OH)D3: 24,25(OH)2D3 production; format: cell-based; conditions: for amount of 24,25(OH)2D3 relative to 0 hr: first experiment
# T1 construct: Also, 24OHase is expressed in OVCAR-3 cells; endogenous in cells; host or cells: OVCAR-3
# T1 sequence (Q07973 36-514): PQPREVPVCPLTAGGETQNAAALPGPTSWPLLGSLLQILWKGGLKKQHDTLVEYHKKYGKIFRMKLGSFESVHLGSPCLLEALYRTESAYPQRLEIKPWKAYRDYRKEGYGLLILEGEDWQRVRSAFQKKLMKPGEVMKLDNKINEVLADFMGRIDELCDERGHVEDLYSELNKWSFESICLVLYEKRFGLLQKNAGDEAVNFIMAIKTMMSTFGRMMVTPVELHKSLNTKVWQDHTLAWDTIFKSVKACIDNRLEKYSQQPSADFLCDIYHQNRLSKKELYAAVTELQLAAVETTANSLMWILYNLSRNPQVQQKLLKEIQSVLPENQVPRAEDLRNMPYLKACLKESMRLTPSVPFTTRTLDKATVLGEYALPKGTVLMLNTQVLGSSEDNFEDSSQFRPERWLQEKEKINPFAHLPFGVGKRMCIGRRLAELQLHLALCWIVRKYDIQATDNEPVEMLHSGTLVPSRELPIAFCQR
# Experimental: OVCAR-3 cells (1.5×10^6 cell/flask) were plated on T25 culture flasks. One day after plating, cells were treated with 500 nM 25(OH)D3 in RPMI 1640 medium supplemented with 10% FBS, 10 μg/ml insulin, 0.25% glucose and antibiotics (100 IU/ml penicillin, 100 μg/ml streptomycin). After 0, 3 or 24 hr, the medium was collected and the cell monolayer was extracted with 1 ml methanol. After 15 min incubation at room temperature, the methanol was transformed into the same tube than the sample medium. The samples for the measurement of the 25(OH)D3 metabolites were purified using the acetonitrile-C 18 Sep-Pak (Waters Corporation, Milford, Mass.) procedure (Turnbull, H., Trafford, D. J., Makin, H. L., “A Rapid and Simple Method for the Measurement of Plasma 25-hydroxyvitamin D2 and 25-hydroxyvitamin D3 Using Sep-Pak C 18 Cartridges and a Single High-Performance Liquid Chromatographic Step,” Clin. Chim. Acta., 120:65-76 (1982)) followed by separation of the metabolites by a high-performance liquid chromatography. […] The second measurement was done following the same procedure except dextran charcoal-treated FBS was used instead of FBS, 24OHase inhibitor (200 nM VID400) was used with the 500 nM 25(OH)D3 treatment, and the samples were collected only after 0 and 24 hr.
smiles,measurement,setting,value
"C=C1CC[C@H](O)C/C1=C/C=C1\CCC[C@]2(C)[C@@H]([C@H](C)CCCC(C)(C)O)CC[C@@H]12 [25(OH)D3, monohydroxyvitamin D3]",stimulated growth compared to the control,"OVCAR-3 cells; 10 nM, 11 days",32%
same,stimulated growth compared to the control,"OVCAR-3 cells; 50 nM, 11 days",41%
same,stimulated growth compared to the control,"OVCAR-3 cells; 100 nM alone, 11 days, Experiment IV, not statistically significant",18%
same,stimulated growth compared to the control,"OVCAR-3 cells; 100 nM, 11 days, Experiment I",39%
same,stimulated growth compared to the control,"OVCAR-3 cells; 200 nM, 11 days",35%
same,stimulated growth compared to the control,"OVCAR-3 cells; 500 nM, 11 days",11%
same,"24,25(OH)2D3","24OHase in OVCAR-3 cells; 500 nM 25(OH)D3, 0 hr, experiment I (FBS)",6 nM
same,"24,25(OH)2D3","24OHase in OVCAR-3 cells; 500 nM 25(OH)D3, 0 hr, experiment II (dextran charcoal-treated FBS)",1 nM
same,"24,25(OH)2D3","24OHase in OVCAR-3 cells; 500 nM 25(OH)D3, 3 hr, experiment I (FBS)",24 nM
same,"amount of 24,25(OH)2D3 relative to 0 hr","24OHase in OVCAR-3 cells; 500 nM 25(OH)D3, 3 hr",4 times
same,"24,25(OH)2D3","24OHase in OVCAR-3 cells; 500 nM 25(OH)D3, 24 hr, experiment I (FBS)",112 nM
same,"24,25(OH)2D3","24OHase in OVCAR-3 cells; 500 nM 25(OH)D3, 24 hr, experiment II (dextran charcoal-treated FBS)",27 nM
same,"amount of 24,25(OH)2D3 relative to 0 hr","24OHase in OVCAR-3 cells; 500 nM 25(OH)D3, 24 hr",18 fold
same,"concentration of 24,25(OH)2D3 relative to 0 hr","24OHase in OVCAR-3 cells; 500 nM 25(OH)D3, 24 hr, second experiment",27 times
"O=C(NC[C@@H](c1ccccc1)n1ccnc1)c1ccc(-c2ccc(Cl)cc2)cc1 [VID400, 2-(R)-4′-Chlorobiphenyl-4-carboxylic acid (2-imidazol-1-yl-2-phenyl-ethyl)-amide]",growth inhibition compared to the control,"OVCAR-3 cells; 200 nM VID400 alone, 11 days, Experiment IV",8%
same,growth inhibition compared to the control,"OVCAR-3 cells; 200 nM VID400 combined with 1 nM 1,25(OH)2D3, 11 days",27%
same,growth inhibition compared to the control,"OVCAR-3 cells; 200 nM VID400 combined with 10 nM 1,25(OH)2D3, 11 days",77%
same,effect on growth inhibition,"OVCAR-3 cells; 200 nM VID 400 combined with 10 nM 1,25(OH)2D3, 11 days",clearly enhanced the growth inhibition
same,growth inhibition compared to the control,"OVCAR-3 cells; 200 nM VID400 combined with 100 nM 25(OH)D3, 11 days",14%
same,effect on growth inhibition,"OVCAR-3 cells; 200 nM VID 400 combined with EB 1089, 11 days",had no additional effect on cell growth inhibition
same,effect on growth inhibition,"OVCAR-3 cells; 200 nM VID 400 combined with retinoids, 11 days",slightly augmented the growth inhibition
same,"production of 24,25(OH)2D3 compared to 500 nM 25(OH)D3 treatment alone","24OHase in OVCAR-3 cells; 200 nM VID400 + 500 nM 25(OH)D3, 24 hr, second experiment",reduced to one-third
same,"24,25(OH)2D3","24OHase in OVCAR-3 cells; 500 nM 25(OH)D3 + 200 nM VID400, 24 hr, experiment II (dextran charcoal-treated FBS)",8 nM
